Here are results for 12 compounds from US7253285B2, “Thiazolinone 4-monosubstituted quinolines” (Hoffmann-La Roche Inc., priority 2004, dated 2007).

The target of data set [1] is T1, recombinant human CDK1/Cyclin B complex (Homo sapiens, UniProt P06493).
T1 construct: made in house; host or cells: High Five insect cells (baculovirus) for CDK1/GST-cyclin B; E. coli M15 for the Rb substrate
Description: CDK1/Cyclin B kinase assay (FlashPlate or HTRF). In kind it is biochemical. The note with it: Rb protein substrate, Ki=IC50/(1+[S]/Km). The protocol: To determine inhibition of CDK1 activity, either FlashPlate™ (NEN™-Life Science Products) assay or HTRF assay was performed. Both types of kinase assays were carried out using recombinant human CDK1/Cyclin B complex. GST-cyclinB (GST-cycB) and CDK1 cDNA clones in baculovirus vectors were provided by Dr. W. Harper at the Baylor College of Medicine, Houston, Tex. Proteins were co-expressed in High Five™ insect cells and the complex was purified on glutathione Sepharose resin (Pharmacia, Piscataway, N.J.) as previously described (Harper, J. W. et al. Cell 1993, 75, 805-816). A 6×-Histidine tagged truncated form of retinoblastoma (Rb) protein (amino acid 386-928) was used as the substrate for the CDK1/Cyclin B assay (the expression plasmid was provided by Dr. Veronica Sullivan, Department of Molecular Virology, Roche Research Centre, Welwyn Garden City, United Kingdom). The Rb protein is a natural substrate for phosphorylation by CDK1 (see Herwig and Strauss Eur. J. Biochem. Vol. 246 (1997) pp. 581-601 and the references cited therein). The expression of the 62 Kd protein was under the control of an IPTG inducible promoter in an M15 E. coli strain. Cells were lysed by sonication and purification was carried out by binding lysates at pH 8.0 to a Ni-chelated agarose column pretreated with 1 mM imidazole. The resin was then washed several times with incrementally decreasing pH buffers to pH 6.0, and eluted with 500 mM imidazole. Eluted protein was dialysed against 20 mM HEPES pH 7.5, 30% glycerol, 200 mM NaCl, and 1 mM DTT. Purified Rb fusion protein stocks were quantitated for protein concentration, aliquoted, and stored at −70° C.
For the FlashPlate kinase assay, 96-well FlashPlates were coated with Rb protein at 10 μg/ml, using 100 μl per well. Plates were incubated at 4° C. overnight or at room temperature for 3 hours on a shaker. To control for nonspecific phosphorylation, one row of wells was coated with 100 μl/well coating buffer (20 mM HEPES, 0.2 M NaCl). Plates were then washed twice with wash buffer (0.01% Tween 20 in phosphate-buffered saline). Compounds to be tested (“test compounds”) were added to the wells at 5× final concentration. Reactions were initiated by immediate addition of 40 μl reaction mix (25 mM HEPES, 20 mM MgCl2, 0.002% Tween 20, 2 mM DTT, 1 μM ATP, 4 nM ^33P-ATP) and a sufficient amount of enzyme to give counts that were at least 10-fold above background. Plates were incubated at room temperature on a shaker for 30 minutes. Plates were washed four times with the wash buffer, sealed, and counted on the TopCount scintillation counter (Packard Instrument Co., Downers Grove, Ill.]. The percent inhibition of Rb phosphorylation, which is a measure of the inhibition of CDK activity, was determined according to the following formula:
[formula] where “test compound” refers to the average counts per minute of the test duplicates, “nonspecific” refers to the average counts per minute when no CDK1/Cyclin B, etc., was added, and “total” refers to the average counts per minute when no compound was added. The IC50 value is the concentration of test compound that reduces by 50% the protein-kinase induced incorporation of the radiolabel under the test conditions described. The value of the inhibitor constant Ki is calculated by the following: Ki=IC50/(1+[S]/Km), where [S] is the ATP concentration and Km is Michaelis constant.
The Homogeneous Time Resolved Fluorescence (HTRF) kinase assay was carried out in 96-well polypropylene plates (BD Biosciences, Bedford, Mass.). Test compounds were first dissolved in DMSO, and then diluted in kinase assay buffer 1 (25 mM HEPES, pH7.0, 8 mM MgCl2, 1.5 mM DTT, and 162 μM ATP) with DMSO concentration at 15%. The CDK1/Cyclin B enzyme was diluted in kinase assay buffer 2 (25 mM HEPES, pH 7.0, 8 mM MgCl2, 0.003% Tween 20, 0.045% BSA, 1.5 mM DTT, and 0.338 μM Rb protein). […]
A general note: Time-resolved FRET reads energy transfer from a long-lived donor to a nearby acceptor.

The structures appear in SMILES notation. Where a name gives a salt, the structure may show the parent alone.

T1 sequence (P06493 whole entry): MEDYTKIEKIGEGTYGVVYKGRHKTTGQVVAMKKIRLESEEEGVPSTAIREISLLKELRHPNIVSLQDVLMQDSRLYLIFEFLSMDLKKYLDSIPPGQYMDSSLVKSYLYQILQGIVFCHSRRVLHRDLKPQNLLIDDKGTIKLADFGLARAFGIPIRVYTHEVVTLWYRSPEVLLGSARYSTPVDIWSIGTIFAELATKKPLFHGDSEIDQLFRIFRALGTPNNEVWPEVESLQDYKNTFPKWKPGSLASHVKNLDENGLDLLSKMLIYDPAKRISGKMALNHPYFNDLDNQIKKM
T1 sequence (P14635 whole entry partner): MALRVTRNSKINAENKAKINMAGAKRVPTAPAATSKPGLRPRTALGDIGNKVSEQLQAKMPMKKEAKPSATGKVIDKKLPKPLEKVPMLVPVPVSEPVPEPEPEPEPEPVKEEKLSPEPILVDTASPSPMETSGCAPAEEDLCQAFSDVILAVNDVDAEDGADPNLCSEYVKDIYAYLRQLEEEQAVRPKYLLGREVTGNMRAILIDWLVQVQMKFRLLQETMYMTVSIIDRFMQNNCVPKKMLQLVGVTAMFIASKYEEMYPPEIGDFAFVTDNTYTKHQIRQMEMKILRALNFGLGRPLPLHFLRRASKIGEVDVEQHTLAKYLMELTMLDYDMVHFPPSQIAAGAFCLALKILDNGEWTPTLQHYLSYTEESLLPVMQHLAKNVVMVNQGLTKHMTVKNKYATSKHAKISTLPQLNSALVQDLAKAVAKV

A word on the melting point: it is the temperature, or range, at which the solid turns liquid. In turn, `COc1ccnc2ccc(/C=C3\SC(NCc4cccs4)=NC3=O)cc12` [Example 1, 5-(4-Methoxy-quinolin-6-ylmeth-(Z)-ylidine)-2-[(thiophen-2-ylmethyl)-amino]-thiazol-4-one] displayed a melting point of 258 to 262 °C.

The compound `COc1ccnc2ccc(/C=C3\SC(N[C@H]4C[C@@H]4c4ccccc4)=NC3=O)cc12` [Example 2, 5-(4-Methoxy-quinolin-6-ylmeth-(Z)-ylidine)-2-((1R,2S)-2-phenyl-cyclopropylamino)-thiazol-4-one] came in with a melting point of 251 to 253 °C.

Regarding `CCOc1ccnc2ccc(/C=C3\SC(NCc4cccs4)=NC3=O)cc12` [Example 4, 5-(4-Ethoxy-quinolin-6-ylmeth-(Z)-ylidine)-2-[(thiophen-2-ylmethyl)-amino]-thiazol-4-one], the melting point lay in the range of 226 to 228 °C.

In general, Ki refers to the dissociation constant of the complex between target and ligand, obtained from inhibition or displacement. In the case of `CCOc1ccnc2ccc(/C=C3\SC(N[C@H]4C[C@@H]4c4ccccc4)=NC3=O)cc12` [Example 5, 5-(4-Ethoxy-quinolin-6-ylmeth-(Z)-ylidine)-2-((1R,2S)-2-phenyl-cyclopropylamino)-thiazol-4-one], the melting point was in the range of 266 to 268 °C. Also, the Ki in data set [1] is 39 nM.

With `O=C1N=C(N[C@H]2C[C@@H]2c2ccccc2)S/C1=C\c1ccc2nccc(OCC3CCCCC3)c2c1` [Example 10, 5-(4-Cyclohexylmethoxy-quinolin-6-ylmeth-(Z)-ylidine)-2-((1R,2S)-2-phenyl-cyclopropylamino)-thiazol-4-one], the melting point lay in the range of 223 to 227 °C. In addition, the Ki in data set [1] was 1190 nM.

Turning to `O=C1N=C(NCc2cccs2)S/C1=C\c1ccc2nccc(N3CCOCC3)c2c1` [Example 15, 5-(4-Morpholin-4-yl-quinolin-6-ylmeth-(Z)-ylidine)-2-[(thiophen-2-ylmethyl)-amino]-thiazol-4-one], the inhibitory constant (Ki) in data set [1] worked out at 210 nM.

Take `COCCOc1ccnc2ccc(/C=C3\SC(N)=NC3=O)cc12` [Example 20, 2-Amino-5-[4-(2-methoxy-ethoxy)-quinolin-6-ylmeth-(Z)-ylidine]-thiazol-4-one as trifluoroacetate salt]: in data set [1], the Ki was 32 nM.

`O=C1N=C(NCc2cccs2)S/C1=C\c1ccc2nccc(Oc3ccccc3)c2c1` [Example 24, 5-(4-Phenoxy-quinolin-6-ylmeth-(Z)-ylidine)-2-[(thiophen-2-ylmethyl)-amino]-thiazol-4-one]: the melting point was 239 to 240.5 °C.

With `NC1=NC(=O)/C(=C/c2ccc3nccc(Oc4ccccc4)c3c2)S1` [Example 25, 2-Amino-5-(4-phenoxy-quinolin-6-ylmeth-(Z)-ylidine)-thiazol-4-one], the Ki in data set [1] turned out to be 340 nM.

Consider `CCOc1ccnc2ccc(/C=C3\SC(NCc4cnc(C)cn4)=NC3=O)cc12` [Example 30, 2-[(5-Methyl-pyrazin-2-ylmethyl)-amino]-5-(4-ethoxy-quinolin-6-ylmeth-(Z)-ylidine)-thiazol-4-one], for which the Ki in data set [1] was determined as 281 nM.

In the case of `CCSc1ccnc2ccc(/C=C3\SC(N[C@H]4C[C@@H]4c4ccccc4)=NC3=O)cc12` [Example 35, 5-(4-Ethylsulfanyl-quinolin-6-ylmeth-(Z)-ylidine)-2-((1R,2S)-2-phenyl-cyclopropylamino)-thiazol-4-one], the inhibitory constant (Ki) in data set [1] is 37.2 nM.

Consider `CCOc1ccnc2ccc(/C=C3\SC(NCCc4cccc(F)c4)=NC3=O)cc12` [Example 40], for which the inhibition constant Ki in data set [1] worked out at 13 nM.
